Literature values as cited in patent US5703067A, “Inhibitors of farnesyl-protein transferase” (Merck & Co., Inc., priority 1995, dated 1997).

Tested on: farnesyl-protein transferase
Conditions: via HMG-CoA reductase inhibition, literature

SMILES: CC[C@H](C)C(=O)O[C@H]1CCC=C2C=C[C@H](C)[C@H](CC[C@@H]3C[C@@H](O)CC(=O)O3)[C@H]21 [compactin]
- Indirect inhibition of farnesyl-protein transferase in vivo: Indirect inhibition of farnesyl-protein transferase in vivo has been demonstrated

SMILES: CC[C@H](C)C(=O)O[C@H]1C[C@@H](C)C=C2C=C[C@H](C)[C@H](CC[C@@H]3C[C@@H](O)CC(=O)O3)[C@H]21 [lovastatin]
- Indirect inhibition of farnesyl-protein transferase in vivo: Indirect inhibition of farnesyl-protein transferase in vivo has been demonstrated
